Assay [1] concerns the target T1, Glucagon receptor (Rattus norvegicus, UniProt P30082). Kind of assay: pA2 value against Glucagon Receptor. As to conditions: read-out: pA2 (converted); call rule not given here.
The target of assay [2] is T1, Glucagon receptor. The experiment in a line: (§1) Binding affinity towards Glucagon receptor in rat liver plasma membranes by displacement of 125 I-labelled glucagon. The assay is classed as cell membranes, Plasma Membrane.
The target of assay [3] is T1, Glucagon receptor. Described as §1. The assay is classed as cell membranes.
For assay [4], the target named is T1, Glucagon receptor. Kind of assay: Effective concentration was determined in cAMP accumulation assay using isolated hepatocytes in the presence rolipram. The assay is classed as functional, cell-based. As to conditions: hepatocyte. In general terms: Cyclic AMP is a second messenger, typically raised through Gs and lowered through Gi signalling.

Structures are written as SMILES.

T1 sequence (P30082 whole entry): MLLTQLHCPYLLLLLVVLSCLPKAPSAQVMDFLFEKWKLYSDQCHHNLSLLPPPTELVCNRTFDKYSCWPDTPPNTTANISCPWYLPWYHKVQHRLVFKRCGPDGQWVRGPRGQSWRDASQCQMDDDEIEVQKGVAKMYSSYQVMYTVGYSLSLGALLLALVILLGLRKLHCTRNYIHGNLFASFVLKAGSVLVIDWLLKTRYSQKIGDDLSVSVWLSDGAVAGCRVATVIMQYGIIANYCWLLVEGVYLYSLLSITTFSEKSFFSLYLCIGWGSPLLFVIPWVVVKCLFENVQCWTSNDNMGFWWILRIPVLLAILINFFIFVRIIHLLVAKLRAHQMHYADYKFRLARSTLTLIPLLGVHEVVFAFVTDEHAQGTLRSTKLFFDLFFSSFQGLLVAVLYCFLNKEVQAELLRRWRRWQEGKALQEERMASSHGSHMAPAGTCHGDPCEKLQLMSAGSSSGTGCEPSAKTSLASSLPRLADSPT

Usually IC50 stands for the point on the concentration scale where inhibition reaches its midpoint. With `CSCC[C@H](NC(=O)[C@H](CC(C)C)NC(=O)[C@H](Cc1c[nH]c2ccccc12)NC(=O)[C@H](CCC(N)=O)NC(=O)[C@@H](NC(=O)[C@H](Cc1ccccc1)NC(=O)[C@H](CC(=O)O)NC(=O)[C@H](CCC(N)=O)NC(=O)[C@H](C)NC(=O)[C@H](CCCNC(=N)N)NC(=O)[C@H](CCCNC(=N)N)NC(=O)[C@H](CO)NC(=O)[C@H](CC(=O)O)NC(=O)[C@H](CC(C)C)NC(=O)[C@H](Cc1ccc(O)cc1)NC(=O)[C@H](CCCCN)NC(=O)[C@H](CO)NC(=O)[C@H](Cc1ccc(O)cc1)NC(=O)[C@H](CCC(=O)O)NC(=O)[C@H](CO)NC(=O)[C@@H](NC(=O)[C@H](C)NC(=O)[C@@H](NC(=O)CNC(=O)[C@H](CCC(N)=O)NC(=O)[C@@H](N)CO)[C@@H](C)O)[C@@H](C)O)C(C)C)C(=O)N[C@@H](CC(N)=O)C(=O)N[C@H](C(N)=O)[C@@H](C)O`, the Kb on Glucagon receptor [1] is 398 nM. The compound further gave an IC50 on Glucagon receptor [2] of 126 nM.

The compound `CSCC[C@H](NC(=O)[C@H](CC(C)C)NC(=O)[C@H](Cc1c[nH]c2ccccc12)NC(=O)[C@H](CCC(N)=O)NC(=O)[C@@H](NC(=O)[C@H](Cc1ccccc1)NC(=O)[C@H](CC(=O)O)NC(=O)[C@H](CCC(N)=O)NC(=O)[C@H](C)NC(=O)[C@H](CCCN=C(N)N)NC(=O)[C@H](CCCN=C(N)N)NC(=O)[C@H](CO)NC(=O)[C@H](CC(=O)O)NC(=O)[C@H](CC(C)C)NC(=O)[C@H](Cc1ccc(O)cc1)NC(=O)[C@H](CCCCN)NC(=O)[C@H](CO)NC(=O)[C@H](Cc1ccc(O)cc1)NC(=O)[C@H](CC(=O)O)NC(=O)[C@H](CO)NC(=O)[C@@H](NC(=O)[C@@H](NC(=O)CNC(=O)[C@H](CCC(N)=O)NC(=O)[C@@H](N)CO)[C@@H](C)O)[C@@H](C)O)C(C)C)C(=O)N[C@@H](CC(N)=O)C(=O)N[C@H](C(N)=O)[C@@H](C)O` registered an IC50 at Glucagon receptor [3] of 128 nM. For the same compound, the Kb at Glucagon receptor [1] is 562 nM. Besides, the EC50 entry at Glucagon receptor [4] is given as “Not Active”.

In turn, `CSCC[C@H](NC(=O)[C@H](CC(C)C)NC(=O)[C@H](Cc1c[nH]c2ccccc12)NC(=O)[C@H](CCC(N)=O)NC(=O)[C@@H](NC(=O)[C@H](Cc1ccccc1)NC(=O)[C@H](CC(=O)O)NC(=O)[C@H](CCC(N)=O)NC(=O)[C@H](C)NC(=O)[C@H](CCCN=C(N)N)NC(=O)[C@H](CCCN=C(N)N)NC(=O)[C@H](CO)NC(=O)[C@H](CC(=O)O)NC(=O)[C@H](CC(C)C)NC(=O)[C@H](Cc1ccc(O)cc1)NC(=O)[C@H](CCCCN)NC(=O)[C@H](CO)NC(=O)[C@H](Cc1ccc(O)cc1)NC(=O)[C@H](CCC(=O)O)NC(=O)[C@H](CO)NC(=O)[C@@H](NC(=O)[C@@H](NC(=O)CNC(=O)[C@H](CCC(N)=O)NC(=O)[C@H](CO)NC(=O)[C@@H](N)Cc1c[nH]cn1)[C@@H](C)O)[C@@H](C)O)C(C)C)C(=O)N[C@@H](CC(N)=O)C(=O)N[C@H](C(N)=O)[C@@H](C)O` registered an IC50 on Glucagon receptor [3] of 113 nM. The Kb at Glucagon receptor [1] was 631 nM. For the same compound, the EC50 entry at Glucagon receptor [4] is “Not Active”.

On to `CSCC[C@H](NC(=O)[C@H](CC(C)C)NC(=O)[C@H](Cc1c[nH]c2ccccc12)NC(=O)[C@H](CCC(N)=O)NC(=O)[C@@H](NC(=O)[C@H](Cc1ccccc1)NC(=O)[C@H](CC(=O)O)NC(=O)[C@H](CCC(N)=O)NC(=O)[C@H](C)NC(=O)[C@H](CCCN=C(N)N)NC(=O)[C@H](CCCN=C(N)N)NC(=O)[C@H](CO)NC(=O)[C@H](CC(=O)O)NC(=O)[C@H](CC(C)C)NC(=O)[C@H](Cc1ccc(O)cc1)NC(=O)[C@H](CCCCN)NC(=O)[C@H](CO)NC(=O)[C@H](Cc1ccc(O)cc1)NC(=O)[C@H](CCC(=O)O)NC(=O)[C@H](CO)NC(=O)[C@@H](NC(=O)[C@H](Cc1c[nH]c2ccccc12)NC(=O)[C@@H](NC(=O)CNC(=O)[C@H](CCC(N)=O)NC(=O)[C@@H](N)CO)[C@@H](C)O)[C@@H](C)O)C(C)C)C(=O)N[C@@H](CC(N)=O)C(=O)N[C@H](C(N)=O)[C@@H](C)O`, for which the 50% inhibitory concentration (IC50) at Glucagon receptor [3] is 19 nM. Further, the Kb at Glucagon receptor [1] was 562 nM. In addition, the EC50 entry on Glucagon receptor [4] is recorded as “Not Active”.

As for `CSCC[C@H](NC(=O)[C@H](CC(C)C)NC(=O)[C@H](Cc1c[nH]c2ccccc12)NC(=O)[C@H](CCC(N)=O)NC(=O)[C@@H](NC(=O)[C@H](Cc1ccccc1)NC(=O)[C@H](CC(=O)O)NC(=O)[C@H](CCC(N)=O)NC(=O)[C@H](C)NC(=O)[C@H](CCCN=C(N)N)NC(=O)[C@H](CCCN=C(N)N)NC(=O)[C@H](CO)NC(=O)[C@H](CC(=O)O)NC(=O)[C@H](CC(C)C)NC(=O)[C@H](Cc1ccc(O)cc1)NC(=O)[C@H](CCCCN)NC(=O)[C@H](CO)NC(=O)[C@H](Cc1ccc(O)cc1)NC(=O)[C@H](CCC(=O)O)NC(=O)[C@H](CO)NC(=O)[C@@H](NC(=O)[C@H](Cc1ccc(O)cc1)NC(=O)[C@@H](NC(=O)CNC(=O)[C@H](CCC(N)=O)NC(=O)[C@@H](N)CO)[C@@H](C)O)[C@@H](C)O)C(C)C)C(=O)N[C@@H](CC(N)=O)C(=O)N[C@H](C(N)=O)[C@@H](C)O`, the IC50 on Glucagon receptor [3] came to 40 nM. Also, the Kb on Glucagon receptor [1] is 631 nM. At Glucagon receptor [4], the EC50 entry is given as “Not Active”.

Values taken from ChEMBL document CHEMBL1130110 (J Med Chem, 1997).
